This note sets out measurements from paper PMC8421526, “Cell-Penetrating Peptides Predicted From CASC3, AKIP1, and AHRR Proteins” (Frontiers in Pharmacology, 2021).

Entries after “also recorded” stand apart in the source; their conditions may differ. Where two headings read alike, the source gives them in different places.

In series [1] the test system is U87, PC3, and HeLa cells. In words: Internalization of FAM-labelled peptides, fluorescence from cell lysate. The conditions noted are these: FAM-labelled peptide 10 µM, 2 h, serum free media, lysis 0.1% Triton X100; cannot distinguish internalized from membrane-attached peptide; Figure 1A. In kind it is cell-based, human. Here is the method: U87 (human glioblastoma like cells) and HeLa (human cervical cancer) were maintained at 37°C and 5% CO2 in Dulbecco’s Modified Eagle’s Medium (DMEM) (Sigma, Germany). PC3 (human prostate cancer) and CHO cells were maintained in Ham´S F12 media and incubated at 37°C and 5% CO2. Cell media were supplemented with 0.1 mM non-essential amino acids, 1.0 mM sodium pyruvate, 10% fetal bovine serum (FBS) (Sigma, Germany), 100°U ml^−1 penicillin, and […] streptomycin (Invitrogen, Sweden). U87 cell dishes were treated with 0.1% gelatin solution prior to addition of cells and media. For assessing the internalization of the peptides from the cell lysate, 50,000 cells were seeded on a 24-well plate 1 day prior to the experiment. On the experiment day, cell media was changed to 450 µl of fresh serum free media followed by the addition of 50 µl of fluorescently labelled peptide solution. The peptide’s final concentration on the cells was 10 µM. The cells were incubated with the peptides for 2 h, following washes with PBS buffer and cell lysis with 100 µl of 0.1% Triton X100. The cell lysate was transferred to black 96-well plate and the fluorescence signal from the fluorescently labelled peptide was measured.

Series [2] concerns U87 cells. The settings on record: for 2-Way ANOVA, MTS assay, treatment group compared to untreated: Table S4 C; for Proliferation in MTS assay compared to the CPP Tat treated group: same concentration of Tat, statistically significant. Here is the method: (§1) The cell proliferation was analyzed with the CellTiter 96® Aqueous Non-Radioactive Cell Proliferation Assay (MTS) (Promega Biotech AB, Sweden) according to the manufacturer’s instructions. For this, 10,000 U87 or CHO cells were seeded 1 day prior to the experiment on transparent 96-well plates. On the experiment day, media was replaced with 90 μl of fresh serum free media. Peptides in the concentration range from 0 to 32 µM were added to the cells. The cells were incubated with the peptides for 20 h or 46 h, following the addition of the reagent and further incubation to reach 24 h or 48 h timepoints. The absorbance of the formazan product was measured at 490 nm with Tecan Sunrise microplate absorbance reader (Tecan Group Ltd., Switzerland) and the percentage of viable cells was calculated using the GraphPad Prism software 5.0 (GraphPad Software, CA, United States).
Background: Tetrazolium assays rely on reduction of a dye to a coloured formazan, in cell work by metabolically active cells.

The subject of a further series is HeLa cells. In words: Internalization of fluorescently labelled peptide, confocal microscopy of live cells. In kind it is cell-based, human. The settings on record: 4 h; for Fluorescence signal from the peptide in confocal images: fluorescently labelled peptide 10 µM, Hoechst counterstain, 20x; for Entry into cells in confocal images: fluorescently labelled peptide 20 µM, Supplementary Figure S2. Here is the method: 48 h prior to the addition of […], 20,000 HeLa cells were seeded on 8-well Nunc™ Lab-Tek™ (Thermo Scientific™, United States) chamber plates. Before the addition of the peptide solutions media was changed to 225 µl of fresh media. […] After 4 h incubation, the cells were washed with PBS and counterstained with Hoechst 33342. Confocal images were acquired from live cells with Zeiss LSM710 (Carl Zeiss AG, Germany). For detecting the fluorescent label from the peptide, 488 nm laser with […] was used, and for detecting nuclei 405 nm laser with 416–503 filter was used. The images were taken with 20x magnification.

Series [3] concerns U87, PC3, and HeLa cells. In words: Percentage of fluorescent cells after peptide treatment, flow cytometry. The settings on record: FAM-labelled peptide 10 µM, 2 h, serum free media, trypan blue quenching, Figure 1B; for Percentage of the fluorescent positive cells: threshold set with untreated cells. In kind it is cell-based, human. Here is the method:
U87 (human glioblastoma like cells) and HeLa (human cervical cancer) were maintained at 37°C and 5% CO2 in Dulbecco’s Modified Eagle’s Medium (DMEM) (Sigma, Germany). PC3 (human prostate cancer) and CHO cells were maintained in Ham´S F12 media and incubated at 37°C and 5% CO2. Cell media were supplemented with 0.1 mM non-essential amino acids, 1.0 mM sodium pyruvate, 10% fetal bovine serum (FBS) (Sigma, Germany), 100°U ml^−1 penicillin, and […] streptomycin (Invitrogen, Sweden). U87 cell dishes were treated with 0.1% gelatin solution prior to addition of cells and media. The percentage of the fluorescent cells after peptide treatment was assessed using flow cytometry. For flow cytometry, 10,000 cells were seeded on a 96-well plate 1 day prior to the experiment. On the experiment day, the cell media was changed to 90 µl of fresh serum free media followed by the addition of 10 µl of the fluorescently labelled peptide solution. The peptide’s final concentration on the cells was 10 µM. The cells were incubated with the peptides for 2 h, following washes with PBS buffer. 0.25% Trypsin-EDTA was added to detach the cells from the plate and 200 µl of PBS mixed with 1% FBS was added. Shortly before the analysis, 50 µl of 0.4% trypan blue was added to quench the fluorescence outside the cells. The fluorescence detected from the untreated cells was used to set the signal threshold. The results are shown as the percentage of the fluorescent positive cells.
A general note: Flow cytometry measures light scatter and fluorescence of single cells or particles in a stream.

Another series relates to CHO cells. The settings on record: serum free media, 8 and 32 µM, average of three independent wells. Here is the method:
as §1

Series [4] relates to U87 cells. In words: Total DNA from cell lysate (PicoGreen dsDNA assay). In kind it is cell-based, human. The conditions noted are these: 5 µM peptide, 48 h, normalized to untreated cells, average of three wells. Here is the method:
Total DNA was measured from U87 cells 48 h after the addition of the peptide solutions. After the incubation, the cells were washed with PBS and lysed as described above. From the cell lysate, DNA was quantified with Quant-iT™ PicoGreen™ dsDNA Assay Kit. The results are shown as the average of measurements from three wells and normalized to untreated cells.

Setting [5] is: Figure 3 24 h, peptide added 0.5 µM.
Where [6] appears, read: Figure 3 24 h, peptide added 2 µM.
[7] abbreviates: Figure 3 24 h, peptide added 8 µM.
The mark [8] stands for this setting: Figure 3 24 h, peptide added 32 µM.
The mark [9] stands for this setting: Figure 3 48 h, peptide added 0.5 µM.
Where [10] appears, read: Figure 3 48 h, peptide added 2 µM.
The mark [11] stands for this setting: Figure 3 48 h, peptide added 8 µM.
Where [12] appears, read: Figure 3 48 h, peptide added 32 µM.

As to “GECTYAGRKRRRPLQK [AHRR8-24, predicted CPP from Aryl hydrocarbon receptor repressor, C-terminally amidated]”, the “Fluorescence signal from the cell lysate (internalization)” value (“Fluorescence signal from the cell lysate” below) with U87, PC3, and HeLa cells [1] is given as “highest fluorescence intensities”. Besides, the “2-Way ANOVA, MTS assay, treatment group compared to untreated” value (“2-Way ANOVA … compared to untreated” for short) with U87 cells [2] (setting [5]) is recorded as “ns (P > 0.05 – ns)”; with U87 cells [2] (setting [6]), “* (p < 0.05 - *)”; in the series with U87 cells [2] (setting [7]) it was “* (p < 0.05 - *)”; in the series with U87 cells [2] (setting [8]), “** (p < 0.01 - **)”. Also, the “Proliferation in MTS assay compared to the CPP Tat treated group” value with U87 cells [2] (U87 cells, 0.5, 2, and 8 µM, 48 h) is given as “decrease in the proliferation”. Besides, the “Viability in MTS assay” value in the series with U87 cells [2] (U87 cells, serum free media, after 48 h) is listed as “decreased viability”. Besides, in the series on HeLa cells, the “Fluorescence signal from the peptide in confocal images” value (“Fluorescence signal from the peptide” below) is “fluorescence signal from the peptides can be seen in the cells”. Moreover, the “Percentage of the fluorescent positive cells” value (from here on “Percentage”) in the series on U87, PC3, and HeLa cells [3] is reported as “more than 10%”.
On to “GRKKRRQRRRPPQ [Tat48-60, known CPP from HIV TAT used as control, C-terminally amidated, reference compound]”, for which the “2-Way ANOVA … compared to untreated” value in the series with U87 cells [2] (setting [5]) was “ns (P > 0.05 – ns)”; in the series on U87 cells [2] (setting [6]), “ns (P > 0.05 – ns)”; with U87 cells [2] (setting [7]) it was “ns (P > 0.05 – ns)”; in the series on U87 cells [2] (setting [8]) it was “* (p < 0.05 - *)”; in the series with U87 cells [2] (setting [9]), “ns (P > 0.05 – ns)”; in the series with U87 cells [2] (setting [10]), “ns (P > 0.05 – ns)”. Further, the entries for the “2-Way ANOVA … compared to untreated” value in the series on U87 cells [2] (setting [11]) and in the series with U87 cells [2] (setting [12]) were “* (p < 0.05 - *)” and “*** (p < 0.001 - ***)”, respectively. Also, in the series on U87 cells [2] (U87 cells, serum free media, 0-32 µM, after 24 or 48 h), the “Toxicity in MTS assay” value is on record as “did not show a considerable amount of toxicity”. Also, the “Fluorescence signal from the peptide” value in the series on HeLa cells is reported as “fluorescence signal from the peptides can be seen in the cells”. Moreover, the “Entry into cells in confocal images” value in the series on HeLa cells is listed as “able to enter into almost all the cells”.
As for “NTKRRLEGAKKA [CCNL2_354-365, predicted CPP from Cyclin L2, C-terminally amidated]”, the “Fluorescent signal in flow cytometry (detectable or not)” value in the series on U87, PC3, and HeLa cells [3] is “all the peptides except the CCNL2, ING4, and FBXO32 derived peptides had a detectable signal”.
Regarding “PDDIKPRRIRKPRY [CASC3_251-264, predicted CPP from CASC3, C-terminally amidated]”, the “Fluorescence signal from the cell lysate” value with U87, PC3, and HeLa cells [1] was “highest fluorescence intensities”. The “2-Way ANOVA … compared to untreated” value in the series on U87 cells [2] (setting [5]) is listed as “** (p < 0.01 - **)”; in the series on U87 cells [2] (setting [6]), “** (p < 0.01 - **)”; in the series with U87 cells [2] (setting [7]), “*** (p < 0.001 - ***)”; in the series on U87 cells [2] (setting [8]) it was “*** (p < 0.001 - ***)”; in the series on U87 cells [2] (setting [9]), “* (p < 0.05 - *)”; in the series with U87 cells [2] (setting [10]), “* (p < 0.05 - *)”. In addition, the “2-Way ANOVA … compared to untreated” value in the series on U87 cells [2] (setting [11]) is listed as “* (p < 0.05 - *)”; with U87 cells [2] (setting [12]), “*** (p < 0.001 - ***)”. For the same sequence, the “Proliferation in MTS assay compared to the CPP Tat treated group” value in the series on U87 cells [2] (U87 cells, 0.5 µM, 24 h) is “decrease in the proliferation”. Further, the “Cell proliferation in MTS assay” value in the series with U87 cells [2] (U87 cells, serum free media, 8 and 32 µM) is “proliferation decreased”; in the series on CHO cells, “proliferation decreased”. The “Fluorescence signal from the peptide” value in the series with HeLa cells is “fluorescence signal from the peptides can be seen in the cells; also recorded: strongest and well dispersed signal”. Moreover, in the series on HeLa cells, the “Entry into cells in confocal images” value is reported as “able to enter into almost all the cells”. For the same sequence, the “Percentage” value with U87, PC3, and HeLa cells [3] was “more than 10%”.
On to “RKRRESASSSSSVKKAKKP [DMAP1_459-467, predicted CPP from DNA methyltransferase 1-associated protein 1, C-terminally amidated]”, for which, in the series on U87, PC3, and HeLa cells [1], the “Fluorescence signal from the cell lysate” value was “above control”.
As for TQKEKKAARARSK [ING4_134-145], the “Fluorescent signal in flow cytometry (detectable or not)” value in the series with U87, PC3, and HeLa cells [3] is “all the peptides except the CCNL2, ING4, and FBXO32 derived peptides had a detectable signal”.
Still for that read-out and setting: as for “VAAKKRKKDML [FBXO32_59-69, predicted CPP from F-box only protein 32, C-terminally amidated]”, the entry is “all the peptides except the CCNL2, ING4, and FBXO32 derived peptides had a detectable signal”.
Regarding VLERAKRRAV [AKIP1_27-37], in the series with U87 cells [4], the “Amount of total DNA” value is listed as “decreased amount of total DNA”. Also, in the series with U87, PC3, and HeLa cells [1], the “Fluorescence signal from the cell lysate” value was “highest fluorescence intensities”. Moreover, the “2-Way ANOVA … compared to untreated” value in the series on U87 cells [2] (setting [5]) is given as “ns (P > 0.05 – ns)”; with U87 cells [2] (setting [6]), “* (p < 0.05 - *)”; in the series on U87 cells [2] (setting [7]) it was “* (p < 0.05 - *)”; in the series with U87 cells [2] (setting [8]) it was “* (p < 0.05 - *)”; with U87 cells [2] (setting [9]), “ns (P > 0.05 – ns)”; in the series on U87 cells [2] (setting [10]), “* (p < 0.05 - *)”. The figures for the “2-Way ANOVA … compared to untreated” value in the series on U87 cells [2] (setting [11]) and in the series on U87 cells [2] (setting [12]) were “* (p < 0.05 - *)” and “** (p < 0.01 - **)”, respectively. For the same sequence, in the series on HeLa cells, the “Fluorescence signal from the peptide” value was “fluorescence signal from the peptides can be seen in the cells”. The “Percentage” value with U87, PC3, and HeLa cells [3] is recorded as “more than 10%”.
